Measurements from patent publication US8901147B2, “Bi-heteroaryl compounds as Vps34 inhibitors” (Novartis AG, priority 2010, dated 2014).

Biological target: recombinant human Vps34 (Homo sapiens, UniProt Q8NEB9)
Assay: Vps34 KinaseGlo assay
Format: biochemical
Conditions: KinaseGlo luminescence ATP detection; PI/OG substrate; 1 μM ATP; room temperature; 8 concentrations, n=2
Method: It was then resuspended in 3% OctylGlucoside by vortexing and stored at 4° C. 5 μL of a mix of PI/OG with recombinant human Vps34 were added. Kinase reactions were started by addition of 5 μl of ATP-mix containing in a final volume 10 μL 10 mM TRIS-HCl pH 7.5, 3 mM MgCl2, 50 mM NaCl, 0.05% CHAPS, 1 mM DTT and 1 μM ATP, and occurred at room temperature. Reactions were stopped with 10 μl of KinaseGlo and plates were read 10 minutes later in a Synergy2 reader using an integration time of 0.1 seconds per well.

Sequence of recombinant human Vps34 (Q8NEB9 whole entry): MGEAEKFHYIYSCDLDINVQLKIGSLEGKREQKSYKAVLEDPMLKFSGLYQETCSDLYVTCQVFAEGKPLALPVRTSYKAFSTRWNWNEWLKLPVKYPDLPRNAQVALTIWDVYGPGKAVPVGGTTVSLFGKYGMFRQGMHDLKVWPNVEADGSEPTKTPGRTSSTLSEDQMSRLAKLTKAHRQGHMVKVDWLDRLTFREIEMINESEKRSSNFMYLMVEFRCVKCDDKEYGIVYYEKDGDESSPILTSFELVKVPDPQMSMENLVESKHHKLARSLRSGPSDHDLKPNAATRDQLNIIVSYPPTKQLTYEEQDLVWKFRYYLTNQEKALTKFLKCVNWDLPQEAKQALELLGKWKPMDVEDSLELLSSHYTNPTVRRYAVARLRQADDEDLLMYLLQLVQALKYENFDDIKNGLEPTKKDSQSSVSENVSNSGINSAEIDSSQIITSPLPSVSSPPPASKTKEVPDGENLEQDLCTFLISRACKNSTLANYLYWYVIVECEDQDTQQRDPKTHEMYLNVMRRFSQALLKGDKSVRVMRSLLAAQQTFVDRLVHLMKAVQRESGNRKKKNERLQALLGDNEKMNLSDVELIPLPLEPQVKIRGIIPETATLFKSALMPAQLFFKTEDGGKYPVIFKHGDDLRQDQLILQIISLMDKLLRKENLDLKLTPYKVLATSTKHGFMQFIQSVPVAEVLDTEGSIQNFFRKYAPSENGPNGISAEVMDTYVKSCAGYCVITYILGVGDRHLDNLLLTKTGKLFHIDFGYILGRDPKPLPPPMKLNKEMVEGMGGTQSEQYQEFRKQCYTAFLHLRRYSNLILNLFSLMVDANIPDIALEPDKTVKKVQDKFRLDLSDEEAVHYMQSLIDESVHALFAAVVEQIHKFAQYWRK

| IC50 [nM] | SMILES |
| --- | --- |
| 104 | Nc1ccc(Nc2nccc(-c3cnc(N)nc3CC3CC3)n2)cc1 [Example 15u, N^2-(4-aminophenyl)-4′-(cyclopropylmethyl)-4,5′-bipyrimidine-2,2′-diamine] |
| 411 | CNc1ncc(-c2ccnc(NC3CCC(N)CC3)n2)c(CC2CC2)n1 (stereo not drawn) [Example 14j, N^2-(4-aminocyclohexyl)-4′-(cyclopropylmethyl)-N^2′-methyl-4,5′-bipyrimidine-2,2′-diamine] |
| 45.5 | c1cc(Nc2nccc(-c3cnc(NC4CCC4)nc3CC3CC3)n2)ccn1 [Example 10f, N^2′-cyclobutyl-4′-(cyclopropylmethyl)-N^2-(pyridin-4-yl)-4,5′-bipyrimidine-2,2′-diamine] |
| 264 | Nc1ncc(-c2ccnc(N[C@H]3CC[C@H](O)CC3)n2)c(CC2CC2)n1 [Example 6b, (1r, 4r)-4-(2′-amino-4′-(cyclopropylmethyl)-4,5′-bipyrimidin-2-ylamino)cyclohexanol] |
| 115 | CNc1ncc(-c2ccnc(Nc3ccc(OC)nc3)n2)c(CC2CC2)n1 [Example 14a, 4′-Cyclopropylmethyl-N^2-(6-methoxy-pyridin-3-yl)-N^2′-methyl-[4,5′]bipyrimidinyl-2,2′-diamine] |
| 25 | Nc1ncc(-c2ccnc(Nc3ccc4[nH]ccc4c3)n2)c(CC2CC2)n1 [Example 15l, 4′-(cyclopropylmethyl)-N^2-(1H-indol-5-yl)-4,5′-bipyrimidine-2,2′-diamine] |
| 439 | CNc1ncc(-c2ccnc(N[C@H]3CC[C@H](C(=O)O)CC3)n2)c(CC2CC2)n1 [Example 14n, (1r,4r)-4-(4′-(cyclopropylmethyl)-2′-(methylamino)-4,5′-bipyrimidin-2-ylamino)cyclohexanecarboxylic acid] |
| 214 | c1cc(Nc2nccc(-c3cncnc3CC3CC3)n2)ccn1 [Example 10v, 4′-(cyclopropylmethyl)-N-(pyridin-4-yl)-4,5′-bipyrimidin-2-amine] |
| 1360 | CNc1ncc(-c2ccnc(NC3CCCC3)n2)c(CC2CC2)n1 [Example 14h, N^2-cyclopentyl-4′-(cyclopropylmethyl)-N^2′-methyl-4,5′-bipyrimidine-2,2′-diamine] |
| 199 | CS(=O)(=O)N[C@H]1CC[C@H](Nc2nccc(-c3cnc(N)nc3CC3CC3)n2)CC1 [Example 15b, N-((1r,4r)-4-(2′-amino-4′-(cyclopropylmethyl)-4,5′-bipyrimidin-2-ylamino)cyclohexyl)methanesulfonamide] |
| 133 | CNc1ncc(-c2ccnc(Nc3cnc4ccccc4c3)n2)c(CC2CC2)n1 [Example 14d, 4′-(cyclopropylmethyl)-N^2′-methyl-N^2-(quinolin-3-yl)-4,5′-bipyrimidine-2,2′-diamine] |
| 90.5 | COc1ncc(-c2ccnc(Nc3ccncc3)n2)c(CC2CC2)n1 [Example 10u, 4′-(cyclopropylmethyl)-2′-methoxy-N-(pyridin-4-yl)-4,5′-bipyrimidin-2-amine] |
| 286 | CNc1ncc(-c2ccnc(Nc3ccccc3)n2)c(CC2CC2)n1 [Example 14b, 4′-(cyclopropylmethyl)-N^2′-methyl-N^2-phenyl-4,5′-bipyrimidine-2,2′-diamine] |
| 106 | CSc1ncc(-c2ccnc(Nc3ccncc3)n2)c(CC2CC2)n1 [Example 11, 4′-(Cyclopropylmethyl)-2′-(methylsulfanyl)-N-pyridin-4-yl-4,5′-bipyrimidin-2-amine] |
| 31.5 | CC(CO)Nc1ncc(-c2ccnc(Nc3ccncc3)n2)c(CC2CC2)n1 (stereo not drawn) [Example 10o, 2-(4′-(cyclopropylmethyl)-2-(pyridin-4-ylamino)-4,5′-bipyrimidin-2′-ylamino)propan-1-ol] |
| 577 | CC(=O)N[C@H]1CC[C@H](Nc2nccc(-c3cnc(N)nc3CC3CC3)n2)CC1 [Example 15a, N-((1r,4r)-4-(2′-amino-4′-(cyclopropylmethyl)-4,5′-bipyrimidin-2-ylamino)cyclohexyl)acetamide] |
| 775 | Cc1ncc(-c2ccnc(N[C@H]3CC[C@H](O)CC3)n2)c(CC2CC2)n1 [Example 6c, (1r,4r)-4-(4′-(cyclopropylmethyl)-2′-methyl-4,5′-bipyrimidin-2-ylamino)cyclohexanol] |
| 22.2 | Cc1nc(N)ncc1-c1ccnc(Nc2ccncc2)n1 [Example 21, 4′-Methyl-N^2-pyridin-4-yl-[4,5′]bipyrimidinyl-2,2′-diamine] |
| 75.5 | c1ccc(CNc2ncc(-c3ccnc(Nc4ccncc4)n3)c(CC3CC3)n2)cc1 [Example 10c, N^2′-benzyl-4′-(cyclopropylmethyl)-N^2-(pyridin-4-yl)-4,5′-bipyrimidine-2,2′-diamine] |
| 31 | Nc1ncc(-c2ccnc(Nc3ccncc3)n2)c(C(F)(F)F)n1 [Example 22, N2-(pyridin-4-yl)-4′-(trifluoromethyl)-4,5′-bipyrimidine-2,2′-diamine] |
| 348 | CNc1ncc(-c2ccnc(N[C@H]3CC[C@H](NC(=O)OC(C)(C)C)CC3)n2)c(CC2CC2)n1 [Example 14i, tert-butyl (1r,4r)-4-(4′-(cyclopropylmethyl)-2′-(methylamino)-4,5′-bipyrimidin-2-ylamino)cyclohexylcarbamate] |
| 4000 | COc1ncc(-c2ccnc(NC3CCC(O)CC3)n2)c(CC2CC2)n1 (stereo not drawn) [Example 6f, 4-(4′-(cyclopropylmethyl)-2′-methoxy-4,5′-bipyrimidin-2-ylamino)cyclohexanol] |
| 5170 | CNc1ncc(-c2ccnc(Nc3cc(OC)cc(OC)c3)n2)c(CC2CC2)n1 [Example 14p, 4′-(cyclopropylmethyl)-N^2-(3,5-dimethoxyphenyl)-N^2′-methyl-4,5′-bipyrimidine-2,2′-diamine] |
| 105 | CC(C)(O)CNc1ncc(-c2ccnc(Nc3ccc(Cl)cc3)n2)c(CC2CC2)n1 [Example 16e, 1-(2-(4-chlorophenylamino)-4′-(cyclopropylmethyl)-4,5′-bipyrimidin-2′-ylamino)-2-methylpropan-2-ol] |
| 857 | CNc1ncc(-c2ccnc(NC3CCC(O)CC3)n2)c(CC2CC2)n1 (stereo not drawn) [Example 14k, 4-(4′-(cyclopropylmethyl)-2′-(methylamino)-4,5′-bipyrimidin-2-ylamino)cyclohexanol] |
| 2230 | CC(C)(CO)CNc1nccc(-c2cnc(N)nc2CC2CC2)n1 [Example 15g, 3-(2′-amino-4′-(cyclopropylmethyl)-4,5′-bipyrimidin-2-ylamino)-2,2-dimethylpropan-1-ol] |
| 27 | N#Cc1ccc(Nc2nccc(-c3cnc(N)nc3CC3CC3)n2)cc1 [Example 15x, 4-(2′-amino-4′-(cyclopropylmethyl)-4,5′-bipyrimidin-2-ylamino)benzonitrile] |
| 53 | Nc1ncc(-c2ccnc(Nc3ccc(F)cc3)n2)c(CC2CC2)n1 [Example 15j, 4′-(cyclopropylmethyl)-N^2-(4-fluorophenyl)-4,5′-bipyrimidine-2,2′-diamine] |
| 781 | Nc1ncc(-c2ccnc(NCc3ccco3)n2)c(CC2CC2)n1 [Example 15k, 4′-(cyclopropylmethyl)-N^2-(furan-2-ylmethyl)-4,5′-bipyrimidine-2,2′-diamine] |
| 1540 | CNc1ncc(-c2ccnc(NC3CCN(C)CC3)n2)c(CC2CC2)n1 [Example 14r, 4′-(cyclopropylmethyl)-N^2′-methyl-N^2-(1-methylpiperidin-4-yl)-4,5′-bipyrimidine-2,2′-diamine] |
